# Columns and labels:
# [1] = KDE in LPS-induced sepsis, inflammation-induced atrophy, ad libitum fed (Experiment 5b); type: in vivo, VM/Dk mice; details: single 4 mL/kg KDE gavage after 10 mg/kg LPS
# Procedure: VM-M3 Cell and Lipopolysaccharide Implantation: For VM-M3 implantation in the model characterization experiments (FIG. 1-5; FIG. 8-12), ˜1×10^6 VM-M3 cells (T. Seyfried, Boston College) in 300 μL sterile PBS (CA-M and CA-F) or 300 μL sterile PBS-only (SH-M and SH-F) were injected subcutaneously into the left abdominal flank resulting in primary tumor formation at the injection site, and subsequently systemically metastasizes to most major organs, namely the liver, kidneys, spleen, lungs, and brain. […] This method of implantation further minimized variability in markers of tumor progression, and therefore provides a useful optional method technique in the VM-M3 model for efficient analysis of potential therapeutic agents. To determine KDE-induced effects on CACS, 1×10^6 VM-M3 cells in 300 μL sterile PBS (KDE+VM-M3 and VM-M3) or 300 μL sterile PBS-only (Sham) were administered intraperitoneally (FIG. 6; FIG. 13). For LPS administration in the septic atrophy model, LPS (Escherichia coli 055:B5; L2880; Sigma-Aldrich, St. Louis, MO) was diluted in sterile PBS and administered intraperitoneally at 10 mg/kg as pilot work indicated a maximal, yet non-fatal, ˜15% bodyweight reduction at 10 mg/kg dose.
# Body Composition: Bodyweight was assessed daily at the same time (7:00-9:00 AM). At EOL, bodyweight and weights of ascites fluid, primary tumor, calf (combined gastrocnemius & soleus), anterior thigh (quadriceps), intraperitoneal fat pads, liver and spleen tissue were measured (Table 1; Experiment 1a&b). A follow-up time course experiment was conducted at weeks 1, 2, and 3 to assess weekly changes in bodyweight and aforementioned tissues for both cancer and sham-matched control animals (Experiment 2). For follow up evaluation of KDE in CACS, bodyweight was tracked daily with tissue weight determined at 21-days, prior to EOL (Experiment 4c). All tissue weights were gathered at harvest and normalized to baseline bodyweight (not influenced by cachexia progression) to allow for appropriate comparison between animals. For evaluation of KDE in LPS, bodyweight was tracked daily for evaluation pre- and post-LPS administration (Experiment 5b&c).
# Food Intake and Ketone Diester Administration: Standard diet dry food (2018 Teklad Global 18% Protein Rodent Diet, Harlan) was mixed with deionized water (1 g dry food/mL deionized water) into a consistent paste and placed on a 100×15 mm dish. Food intake was tracked daily at the same time (7:00-9:00) and replaced every other day to ensure fresh food. […] As pilot work indicated potential water evaporation in food paste in ventilated cages, dehydration standard curve was calculated across various volumes of plated food (5, 10, 25.0, 50.0, 100 g/food) with and without KDE over a two-day period. […]
# [2] = KDE in LPS-induced atrophy, pair-fed animals (Experiment 5c); type: in vivo, VM/Dk mice; details: single 4 mL/kg KDE gavage after 10 mg/kg LPS, 1 day post LPS, vs LPS group
structure (smiles),measurement,setting,value
"CC(=O)CC(=O)OCCC(C)OC(=O)CC(C)=O (centres unmarked) [KDE, R/S 1,3-butanediol acetoacetate diester]",anorexic symptoms (percentage caloric restriction),[1]; 1 day post LPS,significantly reduced
same,attenuation of bodyweight loss,"[1]; first 24 hours, vs LPS with water",47%
same,chronic LPS-induced bodyweight loss,[1]; followed 13 days,significantly attenuated
same,time to recovery (return to baseline bodyweight),[1]; LPS alone did not recover within 13 days,≤ 10 days
same,reduction of bodyweight loss,[2],28%

# Source: patent US12648924B2, “Prevention and treatment of effects of aging and age-associated disorders with ketone supplementation” (priority 2020, dated 2026)
